# Entries after “also recorded” stand apart in the source; their conditions may differ.
# How the values were obtained:
# Format in all cases: cell-based, human
# Tregs = experiment: Treg suppression assay
# Method: Since these PBMC cultures contain Tregs, the suppressive ability of Tregs seem to be altered in the presence of soluble β-glucan and studies were carried out to determine if β-glucan affected Treg suppression. Plasma from β-glucan-treated or vehicle-treated whole blood (described above) was added to 25,000 isolated CFSE-labeled autologous CD4 T cells (CD4^+CD25^−) along with increasing numbers of isolated autologous Tregs (CD4^+CD25^+) resulting in wells with increasing ratios. Cells were then stimulated with 50,000 T cell activating CD3/28 beads for 3 days. Proliferation was subsequently measured by CFSE dilution and quantified by Division Index, which was used to calculate the % suppression of Tregs in the co-culture. % suppression=100-(Division Index of Treg well/Division Index of 1:0 well)[…].
# The Treg suppression assay was conducted as described above, and after 3 days of co-culture, supernatants were analyzed for IFN-gamma production.
# CD4 T cells [1] = experiment: Mac-CD4 T co-culture, surface marker modulation on T cells; conditions: T cells co-cultured with β-glucan-treated vs vehicle-treated M2 macrophages
# Method: (§1) For evaluation of Mac-CD4 T cell surface marker modulation, M2 macrophages were co-cultured with T cells as described above and cells were harvested on day 8, day 9 and day 10 to perform surface receptor staining on both M2 macrophages and T cells.
# (§2) Changes in surface marker expression on both macrophages and CD3 & CD28-stimulated T cells were also measured. Vehicle- and β-glucan-treated M2 macrophages and CD T cells from the co-cultures were evaluated by flow cytometry for the modulation of co-stimulatory or co-inhibitory molecules. FIG. 8C and Table 9 are representative results from 2 different experiments.
# IL-4 = IL-4 in supernatants of macrophage and CD4 T cell co-cultures; conditions: M2 macrophage and CD4 T cell co-cultures
# Method: CD14^+ monocytes from human whole blood were enriched using Ficoll gradient and magnetic bead separation. Enriched monocytes (5×10^5 cells per mL) were then cultured in either M1-polarizing (XVivo 10 media (Lonza Group) supplemented with 5% autologous serum and 100 ng/mL recombinant human granulocyte macrophage colony-stimulating factor (rhGM-CSF) (R&D Systems) or M2-polarizing (XVivo 10 media supplemented with 10% autologous serum and 50 ng/mL recombinant human macrophage colony-stimulating factor (rhM-CSF) (R&D Systems) conditions for 6 days. In experiments performed to evaluate the effect of β-glucan, whole blood was first incubated with vehicle (sodium citrate buffer) or 25 μg/mL soluble β-glucan for 2 hours at 37° C. and then the monocytes were isolated and differentiated. Morphology was checked before macrophages were harvested for phenotypic analysis. […] T cell proliferation was measured at the end of the experiment (day 9-day 11) by flow cytometry, and results are graphically shown as CFSE-dilution peaks. […] Quantitative results were reported as the Division Index (the average number of cell divisions a population underwent) calculated for each of the triplicate wells in each of the culture conditions. […]
# Modulation of IFN-γ and IL-4 production of vehicle- and β-glucan-treated M2 macrophages was then evaluated. […]
# M2 macrophages = experiment: Mac-CD4 T co-culture, surface marker modulation on macrophages; conditions: relative to vehicle-treated M2 macrophages
# Method: as §1, §2
# CD4 T cells [2] = experiment: MCM-CD4 T cell proliferation and surface marker study
# Method: For MCM-CD4 T cell proliferation study, CD3 & CD28-stimulated, CFSE-labeled CD4 T cells were cultured with 50% MCM. T cell proliferation was measured on day 11 as described above. Culture supernatants of the MCM-CD4 T cell co-culture were collected for subsequent cytokine analysis. MCM-CD4 T cell surface marker evaluation was performed as described above.
# To determine whether soluble factors secreted from β-glucan-treated M2 macrophages are required, measurements were carried out of CD4 T cell proliferation co-cultured with β-glucan-treated M2 macrophages MCM (50% of volume) and surface activation marker modulation on T cells incubated with the MCM were observed. FIG. 9 is representative of 2 different experiments. […] In addition, the CD4 T cells cultured in vehicle- and β-glucan-treated M2 macrophage MCM were evaluated for modulation of co-stimulatory or co-inhibitory molecules (CD80, CD28, CTLA-4, 4-1BB and PD-1).
# To test this, M2 macrophages were prepared as described above with a few modifications. The whole blood of a low binder was spun down to remove the plasma and then the cells were reconstituted with serum obtained from a high binder. The reconstituted blood was treated with vehicle or β-glucan (25 μg/mL) for 2 hours at 37° C. The monocytes were evaluated for binding by using anti-β-glucan specific monoclonal antibody and subsequent flow cytometry.
substance,measurement,setting,value
"β(1,6)-[poly-(1,3)-D-glucopyranosyl]-poly-β(1,3)-D-glucopyranose [β-glucan]",IFN-gamma production,"Tregs; Treg suppression assay, 3 days, 8:1 T cell to Treg ratio",enhanced IFN-gamma production
same,suppressive capacity of Tregs,Tregs; plasma from β-glucan-treated vs vehicle-treated whole blood,significant decreases
same,Change in MFI on T cells: 4-1BB,CD4 T cells [1],No change
same,Change in MFI on T cells: CD28,CD4 T cells [1],No change
same,Change in MFI on T cells: CD40L,CD4 T cells [1],No change
same,Change in MFI on T cells: CTLA-4,CD4 T cells [1],No change
same,Change in MFI on T cells: PD1 (CD279),CD4 T cells [1]; day 9,Increased expression; also recorded: Increase
same,production of IL-4,IL-4,no change
same,Change in MFI on Macrophages: 4-1BBL,M2 macrophages,No change
same,Change in MFI on Macrophages: CD40,M2 macrophages,No change
same,Change in MFI on Macrophages: CD80,M2 macrophages,No change
same,Change in MFI on Macrophages: CD172,M2 macrophages,No change
same,Change in MFI on Macrophages: CD209,M2 macrophages,No change
same,Change in MFI on Macrophages: OX40,M2 macrophages,No change
same,Change in MFI on Macrophages: HLA-DR,M2 macrophages; co-culture with CD3 & CD28-stimulated T cells,No change
same,Change in MFI on Macrophages: CD86,M2 macrophages; day 8,relative increase
same,Change in MFI on Macrophages: PD-L1 (CD274),M2 macrophages; day 9,relative increase
same,"T cell markers (CD80, CD28, CTLA-4, 4-1BB and PD-1)",CD4 T cells [2]; CD4 T cells cultured in M2 macrophage MCM (data not shown),no change
same,CD4 T cell proliferation,"CD4 T cells [2]; MCM of M2 macrophages of a low binder crossed-over with high binder's serum, vs vehicle",significantly higher ability to enhance
same,CD4 T cell proliferation,CD4 T cells [2]; β-glucan-treated M2 macrophage MCM (50% of volume) vs vehicle MCM,significantly higher ability to enhance
